Measurements as given in ChEMBL document CHEMBL1201862, “PubChem BioAssay data set” (2004).
Calls of active or inactive are those of the source.

Experiments:
Cytochrome P450 2C19 = Cytochrome P450 2C19 (Homo sapiens, UniProt P33261); test: Cytochrome panel assay with activity outcomes. Panel member name: p450-cyp2c19 Compounds with AC50 equal or less than 10 uM are considered active; type: functional; details: read-out: AC50
Cytochrome P450 3A4 = Cytochrome P450 3A4 (Homo sapiens, UniProt P08684);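 further: CYP3A4 tested as one member of a cytochrome P450 panel screen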
Estrogen receptor beta = Estrogen receptor beta (Homo sapiens, UniProt Q92731);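 further: recombinant ER-beta bound to coactivator SRC1 peptide in presence of estradiol agonist; inhibitors block coactivator peptide binding and lower the FRET signal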
Coagulation factor XII = biological target: T1, Coagulation factor XII (Homo sapiens, UniProt P00748); type: functional;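 further: activated factor XIIa alpha cleaving a fluorogenic AMC peptide substrate; inhibitor potency from loss of enzyme activity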
T1 sequence (P00748 whole entry): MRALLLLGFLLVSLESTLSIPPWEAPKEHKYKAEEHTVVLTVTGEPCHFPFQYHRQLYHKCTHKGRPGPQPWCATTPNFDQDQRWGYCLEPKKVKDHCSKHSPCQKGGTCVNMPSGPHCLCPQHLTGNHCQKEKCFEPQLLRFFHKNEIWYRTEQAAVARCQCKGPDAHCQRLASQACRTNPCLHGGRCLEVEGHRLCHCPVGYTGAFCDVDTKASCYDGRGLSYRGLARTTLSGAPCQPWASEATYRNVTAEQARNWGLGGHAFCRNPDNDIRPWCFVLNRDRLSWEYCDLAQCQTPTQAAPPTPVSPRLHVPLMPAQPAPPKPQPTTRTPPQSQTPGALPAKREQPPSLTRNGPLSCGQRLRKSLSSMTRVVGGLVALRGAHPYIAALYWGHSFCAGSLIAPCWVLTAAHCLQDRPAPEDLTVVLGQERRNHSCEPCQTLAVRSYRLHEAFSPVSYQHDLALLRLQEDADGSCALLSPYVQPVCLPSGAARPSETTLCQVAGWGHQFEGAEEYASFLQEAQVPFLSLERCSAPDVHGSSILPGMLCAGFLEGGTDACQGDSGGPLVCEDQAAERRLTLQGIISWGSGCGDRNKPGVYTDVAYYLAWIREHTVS

[1] = Luminescence Cell-Based Dose Response to Identify Activators of Luciferase Translation or Activity in H4-C Neuroglioblastoma Cells. [Related pubchem assays: 1829 (Project Summary), 1814 (Primary HTS)]; type: functional
[2] = biological target: Peroxisome proliferator-activated receptor gamma/Nuclear receptor coactivator 3 (Homo sapiens, UniProt P37231); test: (§1) TR-FRET dose response biochemical High Throughput Screening assay for agonists of the steroid receptor coactivator 3 (SRC-3) recruitment by the peroxisome proliferator-activated receptor gamma (PPAR gamma): non-selective agonists. [Related pubchem assays: 1301 (Confirmation screen.), 1048 (Primary screen.)]; type: functional
[3] = Luminescence Cell-Based Dose Confirmation to Identify Activators of 5'UTR Stem-Loop Driven Alpha-Synuclein mRNA Translation in H4 Neuroglioblastoma Cells. [Related pubchem assays: 1829 (Project Summary), 1814 (Primary HTS)]; type: functional
[4] = biological target: Peroxisome proliferator-activated receptor gamma/Nuclear receptor coactivator 1 (Homo sapiens, UniProt P37231); test: as §1, with “1 (SRC-1)” for “3 (SRC-3)”, “assays (depositor defined):AID1300, AID1808, AID504735, AID631]” for “assays: 1301 (Confirmation screen.), 1048 (Primary screen.)]”; type: protein assay
[5] = biological target: Peroxisome proliferator-activated receptor gamma/Nuclear receptor coactivator 2 (Homo sapiens, UniProt P37231); test: TR-FRET dose response biochemical High Throughput Screening assay for agonists of the steroid receptor coactivator 2 (SRC-2) recruitment by the peroxisome proliferator-activated receptor gamma (PPAR gamma): non-selective agonists. [Related pubchem assays: 1297, 1032 ]; type: functional
[6] = Luminescence Cell-Based Dose Response to Identify Activators of 5'UTR Stem-Loop Driven Prion Protein mRNA Translation in H4-C Neuroglioblastoma Cells. [Related pubchem assays: 1829 (Project Summary), 1814 (Primary HTS)]; type: functional
[7] = Luminescence Cell-Based Dose Response HTS to Identify Activators of Luciferase Translation or Activity in H4 […] Cells. [Related pubchem assays: 1829 (Project Summary), 1814 (Primary HTS)]; type: functional
H4 = test: Luminescence Cell-Based Dose Response HTS to Identify Activators of 5'UTR Stem-Loop Driven Prion Protein mRNA Translation in H4 Neuroglioblastoma Cells. [Related pubchem assays: 1829 (Project Summary), 1814 (Primary HTS)]; type: functional; details: Homo sapiens
[8] = HPDE-C7 pancreatic duct cell viability loss – fluorescence, HTS (AID 430); type: functional, cell-based; details: Homo sapiens
[9] = viability loss of HPDE-C7K cells – cell-based, fluorescence, HTS, primary screen (AID 431); type: functional; details: Homo sapiens
[10] = biological target: T2, Voltage-gated N-type calcium channel alpha-1B subunit/Amyloid beta A4 precursor protein-binding family A member 1 (Homo sapiens, UniProt Q00975+Q02410); type: protein assay
[11] = biological target: T3, Polyadenylate-binding protein 1 (Homo sapiens, UniProt P11940); test: MLLE binding blockers, Cy5 peptide tracer – biochemical, fluorescence polarization, Cy5-PAM2 peptide, secondary, miRNA deadenylation inhibitor project, dose response (AID 602260); type: functional; details: read-out: IC50_Mean
[12] = biological target: T2, Voltage-gated N-type calcium channel alpha-1B subunit/Amyloid beta A4 precursor protein-binding family A member 1; type: protein assay; remark: listed apart in the source
[13] = biological target: T3, Polyadenylate-binding protein 1; test: MLLE domain peptide-binding blockers, IC50 – biochemical, fluorescence polarization, FITC-PAM2 peptide, dose response (AID 602259); type: functional; details: read-out: IC50_Mean
[14] = biological target: Disintegrin and metalloproteinase domain-containing protein 17 (Homo sapiens, UniProt P78536); test: exosite inhibitors of ADAM17, dose response, biochemical (AID 743260)
[15] = inhibition of ADAM10 peptide cleavage – biochemical, FRET peptide substrate, recombinant human ADAM10, selectivity assay for ADAM17 exosite inhibitor project, dose response (AID 743259);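 further: ADAM10 enzyme cleaving a FRET peptide substrate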
[16] = Luminescence Cell-Based Dose Retest to Confirm Inhibitors of Cancer Stem Cells. [Related pubchem assays (depositor defined):AID2717, AID2721]; type: functional; details: Homo sapiens
[17] = biological target: T4, Histone-lysine N-methyltransferase NSD2 (Homo sapiens, UniProt O96028); type: biochemical
T4 sequence (O96028 whole entry): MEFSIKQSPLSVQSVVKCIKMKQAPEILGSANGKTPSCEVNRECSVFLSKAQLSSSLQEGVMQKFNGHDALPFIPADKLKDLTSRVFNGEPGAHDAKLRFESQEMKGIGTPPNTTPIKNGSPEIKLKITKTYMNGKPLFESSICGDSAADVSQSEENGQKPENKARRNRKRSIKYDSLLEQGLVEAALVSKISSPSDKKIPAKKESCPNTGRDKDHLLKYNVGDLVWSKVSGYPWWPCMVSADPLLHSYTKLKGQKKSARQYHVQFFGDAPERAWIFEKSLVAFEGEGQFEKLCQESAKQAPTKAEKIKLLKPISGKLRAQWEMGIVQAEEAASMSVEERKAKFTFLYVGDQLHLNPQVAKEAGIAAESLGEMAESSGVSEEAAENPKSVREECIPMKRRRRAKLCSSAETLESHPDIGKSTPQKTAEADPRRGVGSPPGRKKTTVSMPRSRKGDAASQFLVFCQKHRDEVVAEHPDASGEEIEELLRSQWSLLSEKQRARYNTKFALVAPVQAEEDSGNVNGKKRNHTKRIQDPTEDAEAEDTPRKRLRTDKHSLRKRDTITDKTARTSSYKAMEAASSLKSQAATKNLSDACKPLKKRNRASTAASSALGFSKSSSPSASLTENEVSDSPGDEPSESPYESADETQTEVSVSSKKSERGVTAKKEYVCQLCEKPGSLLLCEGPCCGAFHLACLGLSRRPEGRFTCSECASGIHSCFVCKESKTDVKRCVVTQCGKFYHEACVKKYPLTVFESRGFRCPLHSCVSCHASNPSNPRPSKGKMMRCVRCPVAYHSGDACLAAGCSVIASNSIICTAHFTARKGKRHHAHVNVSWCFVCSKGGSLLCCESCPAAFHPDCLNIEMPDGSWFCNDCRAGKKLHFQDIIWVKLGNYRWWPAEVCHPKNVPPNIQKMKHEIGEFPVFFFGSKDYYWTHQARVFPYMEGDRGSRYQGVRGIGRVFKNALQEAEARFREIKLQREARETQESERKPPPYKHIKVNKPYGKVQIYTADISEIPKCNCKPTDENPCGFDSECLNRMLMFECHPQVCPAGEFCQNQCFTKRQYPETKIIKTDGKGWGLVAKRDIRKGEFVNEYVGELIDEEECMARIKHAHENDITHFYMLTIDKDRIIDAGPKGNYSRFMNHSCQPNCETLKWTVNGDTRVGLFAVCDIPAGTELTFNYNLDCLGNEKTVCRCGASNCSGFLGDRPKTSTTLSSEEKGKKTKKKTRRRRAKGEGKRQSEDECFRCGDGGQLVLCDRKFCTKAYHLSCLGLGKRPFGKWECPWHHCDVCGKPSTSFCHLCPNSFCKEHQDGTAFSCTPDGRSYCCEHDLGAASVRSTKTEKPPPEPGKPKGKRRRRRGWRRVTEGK

[18] = viability of uninfected HEp-2 cells – cell-based, HTS, cytotoxicity control for RSV inhibitor project, dose response (AID 2410); type: functional; details: human respiratory syncytial virus
[19] = Luminescence Cell-Based Dose Confirmation HTS to Identify Activators of 5'UTR Stem-Loop Driven Alpha-Synuclein mRNA Translation in H4 Neuroglioblastoma Cells. [Related pubchem assays: 1829 (Project Summary), 1814 (Primary HTS)]; type: functional
[20] = viability of PTEN-deleted HCT116 cells – cell-based, HCT116 PTEN knockout, dose response (AID 1047); type: functional;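 further: HCT116 colon tumor cells with PTEN knocked out; cells exposed to compound for 60 hours before readout; potency for loss of cell viability measured by luminescence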
[21] = biological target: FAD-linked sulfhydryl oxidase ALR (Homo sapiens, UniProt P55789); test: ALR-catalysed DTT oxidation blockers – biochemical, H2O2 detection, luminescence, cherry-pick, dose response (AID 493248)
[22] = viability of HCT116 lacking mutant beta-catenin – cell-based, human colon tumor, dose response (AID 1045); type: functional;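 further: HCT116 colon tumor cells with beta catenin knocked out; cells exposed to compound for 60 hours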
Cytochrome P450 2C9 = Cytochrome P450 2C9 (Homo sapiens, UniProt P11712)
[23] = biological target: DNA dC->dU-editing enzyme APOBEC-3G (Homo sapiens, UniProt Q9HC16); test: Dose Response confirmation of small molecule APOBEC3G DNA Deaminase Inhibitors via a fluorescence-based single-stranded DNA deaminase assay. [Related pubchem assays (depositor defined):AID493012, AID493028]; type: functional

Cytochrome P450 3A4, sequence (P08684 whole entry): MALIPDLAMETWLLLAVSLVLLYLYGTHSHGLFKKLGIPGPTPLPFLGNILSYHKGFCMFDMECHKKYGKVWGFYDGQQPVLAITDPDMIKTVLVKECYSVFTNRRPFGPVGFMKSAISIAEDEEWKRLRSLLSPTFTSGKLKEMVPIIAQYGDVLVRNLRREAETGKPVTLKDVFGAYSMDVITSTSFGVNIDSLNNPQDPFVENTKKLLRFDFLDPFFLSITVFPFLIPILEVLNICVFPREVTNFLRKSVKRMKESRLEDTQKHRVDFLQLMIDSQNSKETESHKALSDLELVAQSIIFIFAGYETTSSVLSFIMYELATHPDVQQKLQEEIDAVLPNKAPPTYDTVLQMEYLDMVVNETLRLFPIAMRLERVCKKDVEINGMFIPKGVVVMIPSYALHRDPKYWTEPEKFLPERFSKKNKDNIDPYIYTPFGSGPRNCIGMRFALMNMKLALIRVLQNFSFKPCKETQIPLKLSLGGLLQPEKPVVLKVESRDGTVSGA
T2 sequence (Q00975 whole entry): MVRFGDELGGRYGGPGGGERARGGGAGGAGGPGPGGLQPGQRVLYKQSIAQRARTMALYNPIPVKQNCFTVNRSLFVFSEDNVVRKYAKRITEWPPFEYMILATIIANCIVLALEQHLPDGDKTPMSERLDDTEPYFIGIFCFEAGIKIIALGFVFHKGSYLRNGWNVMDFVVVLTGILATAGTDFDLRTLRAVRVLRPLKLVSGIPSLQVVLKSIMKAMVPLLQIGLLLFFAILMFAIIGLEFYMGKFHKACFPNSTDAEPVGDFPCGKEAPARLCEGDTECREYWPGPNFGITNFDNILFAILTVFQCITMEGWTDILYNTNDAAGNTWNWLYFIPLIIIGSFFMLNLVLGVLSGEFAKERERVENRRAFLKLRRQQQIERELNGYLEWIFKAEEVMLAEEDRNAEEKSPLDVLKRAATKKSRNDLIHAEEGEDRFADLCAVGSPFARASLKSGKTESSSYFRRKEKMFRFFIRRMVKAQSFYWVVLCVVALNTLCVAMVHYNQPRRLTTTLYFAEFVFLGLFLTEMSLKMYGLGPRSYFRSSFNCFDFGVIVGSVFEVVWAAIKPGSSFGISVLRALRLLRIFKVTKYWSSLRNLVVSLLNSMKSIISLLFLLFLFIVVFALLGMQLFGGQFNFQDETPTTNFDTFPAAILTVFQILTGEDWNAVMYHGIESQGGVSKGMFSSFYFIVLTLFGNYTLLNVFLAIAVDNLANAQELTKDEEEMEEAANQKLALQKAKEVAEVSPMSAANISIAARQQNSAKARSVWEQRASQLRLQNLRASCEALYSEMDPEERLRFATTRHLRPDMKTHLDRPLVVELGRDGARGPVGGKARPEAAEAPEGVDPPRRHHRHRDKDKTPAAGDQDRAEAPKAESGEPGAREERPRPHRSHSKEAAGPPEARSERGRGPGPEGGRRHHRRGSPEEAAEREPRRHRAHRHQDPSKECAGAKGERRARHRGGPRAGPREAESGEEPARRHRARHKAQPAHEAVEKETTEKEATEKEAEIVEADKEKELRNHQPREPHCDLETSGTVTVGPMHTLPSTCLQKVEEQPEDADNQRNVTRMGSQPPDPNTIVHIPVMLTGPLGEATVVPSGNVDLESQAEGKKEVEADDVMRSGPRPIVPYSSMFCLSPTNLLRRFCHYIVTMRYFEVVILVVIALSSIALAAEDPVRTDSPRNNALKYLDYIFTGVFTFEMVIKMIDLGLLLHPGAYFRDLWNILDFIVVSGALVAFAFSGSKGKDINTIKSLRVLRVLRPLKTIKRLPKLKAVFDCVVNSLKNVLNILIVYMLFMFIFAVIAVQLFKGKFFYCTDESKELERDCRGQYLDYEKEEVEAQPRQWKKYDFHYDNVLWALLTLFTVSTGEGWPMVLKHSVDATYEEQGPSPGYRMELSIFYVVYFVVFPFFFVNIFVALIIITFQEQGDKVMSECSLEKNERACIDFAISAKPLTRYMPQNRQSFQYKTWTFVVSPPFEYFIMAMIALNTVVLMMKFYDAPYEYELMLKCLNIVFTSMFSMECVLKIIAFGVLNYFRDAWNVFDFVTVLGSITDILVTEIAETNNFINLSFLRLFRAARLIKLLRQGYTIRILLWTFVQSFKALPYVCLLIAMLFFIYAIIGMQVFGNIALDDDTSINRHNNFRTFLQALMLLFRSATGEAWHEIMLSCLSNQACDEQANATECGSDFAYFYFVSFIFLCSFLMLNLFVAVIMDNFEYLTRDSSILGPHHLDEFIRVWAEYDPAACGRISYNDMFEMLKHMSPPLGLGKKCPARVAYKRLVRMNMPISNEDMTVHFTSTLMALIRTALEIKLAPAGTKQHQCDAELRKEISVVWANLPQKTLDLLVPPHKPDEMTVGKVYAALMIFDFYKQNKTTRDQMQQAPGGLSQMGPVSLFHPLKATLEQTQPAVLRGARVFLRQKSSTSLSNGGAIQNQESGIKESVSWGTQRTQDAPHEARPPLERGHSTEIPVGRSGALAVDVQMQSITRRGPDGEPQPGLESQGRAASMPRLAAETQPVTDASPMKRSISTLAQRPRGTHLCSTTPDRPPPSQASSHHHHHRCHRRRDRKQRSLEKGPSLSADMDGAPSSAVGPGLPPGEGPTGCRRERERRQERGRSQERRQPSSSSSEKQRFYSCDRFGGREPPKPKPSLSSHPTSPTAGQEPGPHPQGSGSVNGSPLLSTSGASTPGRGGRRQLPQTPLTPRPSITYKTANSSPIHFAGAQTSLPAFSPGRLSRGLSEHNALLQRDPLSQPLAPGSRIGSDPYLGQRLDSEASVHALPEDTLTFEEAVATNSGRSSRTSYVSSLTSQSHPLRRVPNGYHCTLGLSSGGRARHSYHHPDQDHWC
T2 sequence (Q02410 whole entry): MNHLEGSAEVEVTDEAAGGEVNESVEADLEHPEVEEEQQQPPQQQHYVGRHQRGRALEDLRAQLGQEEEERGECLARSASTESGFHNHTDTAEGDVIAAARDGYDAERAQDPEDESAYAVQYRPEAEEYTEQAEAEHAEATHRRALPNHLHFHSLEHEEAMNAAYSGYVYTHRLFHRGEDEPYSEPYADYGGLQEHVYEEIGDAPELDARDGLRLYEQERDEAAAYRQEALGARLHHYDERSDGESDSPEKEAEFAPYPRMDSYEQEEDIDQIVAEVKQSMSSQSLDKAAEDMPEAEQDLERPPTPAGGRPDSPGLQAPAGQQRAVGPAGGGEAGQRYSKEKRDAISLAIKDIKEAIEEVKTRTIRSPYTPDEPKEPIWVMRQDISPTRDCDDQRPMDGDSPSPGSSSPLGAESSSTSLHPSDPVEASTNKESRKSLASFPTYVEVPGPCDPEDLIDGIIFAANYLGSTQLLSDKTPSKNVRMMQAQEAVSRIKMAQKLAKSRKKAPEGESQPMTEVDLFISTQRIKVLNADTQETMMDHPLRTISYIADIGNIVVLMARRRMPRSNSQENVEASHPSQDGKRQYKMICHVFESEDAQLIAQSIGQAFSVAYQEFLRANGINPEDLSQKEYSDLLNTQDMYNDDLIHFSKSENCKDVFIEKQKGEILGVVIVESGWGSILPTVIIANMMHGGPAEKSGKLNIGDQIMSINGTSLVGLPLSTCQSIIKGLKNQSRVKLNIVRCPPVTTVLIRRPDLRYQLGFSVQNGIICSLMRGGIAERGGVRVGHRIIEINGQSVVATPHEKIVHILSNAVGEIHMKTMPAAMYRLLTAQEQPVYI
Disintegrin and metalloproteinase domain-containing protein 17, sequence (P78536 whole entry, the tested form may be a part): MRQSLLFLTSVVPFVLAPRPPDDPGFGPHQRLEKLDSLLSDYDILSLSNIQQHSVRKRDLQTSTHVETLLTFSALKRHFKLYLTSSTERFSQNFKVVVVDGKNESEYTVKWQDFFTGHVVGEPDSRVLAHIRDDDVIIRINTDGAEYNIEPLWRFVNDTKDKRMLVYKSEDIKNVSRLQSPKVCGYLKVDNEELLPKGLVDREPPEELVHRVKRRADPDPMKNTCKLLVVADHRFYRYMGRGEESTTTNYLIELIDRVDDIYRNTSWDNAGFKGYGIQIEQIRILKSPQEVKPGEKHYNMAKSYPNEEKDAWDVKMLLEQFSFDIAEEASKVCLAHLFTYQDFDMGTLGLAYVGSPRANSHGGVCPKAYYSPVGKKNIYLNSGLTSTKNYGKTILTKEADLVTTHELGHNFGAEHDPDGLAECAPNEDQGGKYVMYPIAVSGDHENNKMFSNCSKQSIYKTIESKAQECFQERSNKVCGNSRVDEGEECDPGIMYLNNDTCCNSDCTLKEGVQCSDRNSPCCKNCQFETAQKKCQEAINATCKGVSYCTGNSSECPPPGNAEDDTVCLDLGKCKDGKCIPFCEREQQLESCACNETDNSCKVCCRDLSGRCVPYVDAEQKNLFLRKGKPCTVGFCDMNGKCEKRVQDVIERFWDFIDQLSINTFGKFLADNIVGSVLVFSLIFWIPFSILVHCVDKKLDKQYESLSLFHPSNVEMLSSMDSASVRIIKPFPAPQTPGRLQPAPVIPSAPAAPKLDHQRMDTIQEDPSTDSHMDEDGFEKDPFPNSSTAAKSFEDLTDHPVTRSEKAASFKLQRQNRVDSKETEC
Estrogen receptor beta, sequence (Q92731 whole entry): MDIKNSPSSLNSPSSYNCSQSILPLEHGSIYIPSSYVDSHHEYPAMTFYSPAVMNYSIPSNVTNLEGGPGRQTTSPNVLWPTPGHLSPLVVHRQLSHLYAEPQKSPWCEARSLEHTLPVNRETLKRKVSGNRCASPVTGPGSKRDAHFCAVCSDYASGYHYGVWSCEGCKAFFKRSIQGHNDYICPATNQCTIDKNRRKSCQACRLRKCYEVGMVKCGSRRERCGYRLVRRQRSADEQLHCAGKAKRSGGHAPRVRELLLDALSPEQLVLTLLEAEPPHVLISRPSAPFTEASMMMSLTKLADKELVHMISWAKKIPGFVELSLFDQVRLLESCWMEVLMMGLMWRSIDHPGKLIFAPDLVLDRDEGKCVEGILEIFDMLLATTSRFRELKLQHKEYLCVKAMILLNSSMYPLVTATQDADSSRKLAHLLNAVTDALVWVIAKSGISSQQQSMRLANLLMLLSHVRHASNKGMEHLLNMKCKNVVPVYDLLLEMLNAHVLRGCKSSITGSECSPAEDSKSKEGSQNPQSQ

## COC(=O)N1CCC2(CC1)CN(C(c1ccccc1)c1ccccc1)C2
Cytochrome P450 2C19
  AC50: 39.8 µM (inconclusive)
Cytochrome P450 3A4
  AC50: inconclusive

## COC(=O)Nc1c(-c2ccccc2)nc2ccc(C)cn12
Estrogen receptor beta
  IC50: > 50 µM (not active)

## Fc1cc(F)c2nc(N3CCCC3)sc2c1
Coagulation factor XII
  IC50: > 50 µM (inactive)

## Cc1oc2nc(SCC(=O)NCCCO)nc(N)c2c1C
Estrogen receptor beta
  IC50: > 50 µM (not active)

## COc1ccc2c3nc4ccccc4c-3c(O)oc2c1
[1]
  EC50: 0.533 µM (active)
[2]
  EC50: > 79.4 µM (not active)
[3]
  EC50: 0.393 µM (active)
[4]
  EC50: 7.49 µM (active)
[5]
  EC50: 8.33 µM (active)
[6]
  EC50: > 12 µM (not active)
[7]
  EC50: < 0.1 µM (active)
H4
  EC50: 20.1 µM (inconclusive)

## COc1ccc(NC(=O)c2oc3ccccc3c2NC(=O)c2ccc(OC)c(OC)c2)c(OC)c1
[8]
  EC50: > 20 µM (not active)
[9]
  EC50: > 20 µM (not active)

## COCCNC(=O)CSc1nnc2c(Cl)cc(Cl)cn12
Coagulation factor XII
  IC50: > 50 µM (inactive)

## CCNC(=S)NC(=Nc1nc(C)cc(C)n1)NCc1cccnc1
[10]
  IC50: 9.16 µM (active)
[11]
  IC50: > 66 µM (inactive)
[12]
  IC50: > 50 µM (inactive)
[13]
  IC50: > 66 µM (inactive)

## Cc1ccc(/C=C/C(=O)Nc2ccc(Oc3ccccc3)cc2)o1
[14]
  IC50: > 69.6 µM (inactive)
[15]
  IC50: > 69.6 µM (inactive)
[16]
  AC50: 5.29 µM (active)

## CCC(C)NCCCCOc1ccc(Cl)cc1C (centres undefined)
[17]
  AC50: > 20 µM (inactive)

## CC(C)CN(CC(C)C)C1=N/C(=C\c2ccco2)C(=O)N1c1ccccc1
Cytochrome P450 3A4
  AC50: inconclusive

## Cn1c2c(c3ccccc31)CCSC2=O
[18]
  CC50: > 50 µM (active)
Coagulation factor XII
  IC50: > 50 µM (inactive)

## CC1CCN(C(=O)c2ccc3ccccc3c2)CC1
[1]
  EC50: 10.2 µM (active)
[3]
  EC50: 0.449 µM (active)
[19]
  EC50: < 0.1 µM (active)
[6]
  EC50: 1.09 µM (active)
[7]
  EC50: 35 µM (active)
H4
  EC50: > 120 µM (not active)

## CCN(CCNC(=O)C1CCN(Cc2nc(-c3ccc(Cl)cc3)oc2C)CC1)c1ccccc1
[20]
  EC50: 6.02 µM (active)
[8]
  EC50: > 20 µM (not active)
[21]
  AC50: 4.08 µM (active)
[9]
  EC50: > 20 µM (not active)
[22]
  EC50: 6.26 µM (active)

## C/C(NCCN1CCOCC1)=C1/C(=O)NC(=O)N(Cc2ccccc2)C1=O
Cytochrome P450 3A4
  AC50: inconclusive
Cytochrome P450 2C9
  AC50: 25.1 µM (inconclusive)

## COc1ccc(C2N(c3ccccc3)CCN2c2ccccc2)cc1O
Coagulation factor XII
  IC50: > 50 µM (inactive)

## COc1ccc(-c2csc(NC(=O)COC(=O)c3ccco3)n2)cc1
[1]
  EC50: > 12 µM (not active)
[3]
  EC50: > 12 µM (not active)
[19]
  EC50: 35.9 µM (active)
[6]
  EC50: > 12 µM (not active)
[7]
  EC50: 29 µM (active)
H4
  EC50: 0.188 µM (active)

## COc1ccc(OC)c(C2CC(=O)N3CN(c4ccccc4)CSC3=C2C#N)c1 (centres undefined)
[10]
  IC50: 6.54 µM (active)
[23]
  IC50: 11.8 µM (active)
[12]
  IC50: > 50 µM (inactive)

## COc1ccc(-c2ccc(CN3C(C(C)C)C(=O)N(Cc4cn(Cc5ccco5)nn4)CCS3(=O)=O)cc2)cc1OC (centres undefined)
[14]
  IC50: > 69.5 µM (inactive)
[15]
  IC50: > 69.5 µM (inactive)

## COc1ccc(/N=C2\SC(CC(=O)Nc3ccc(F)cc3)C(=O)N2Cc2ccco2)cc1 (centres undefined)
[14]
  IC50: > 69.5 µM (inactive)
[15]
  IC50: > 69.5 µM (inactive)
